From patent US12679832B2, “Compounds and their uses as CD38 inhibitors” (Nanjing Immunophage Biotech Co., Ltd., priority 2021, dated 2026) come the findings set out here.

A value given as a limit tells only on which side of the number the result lay.

One may read the IC50 as the concentration that inhibits the measured activity by half.

In this test the target is T1, hCD38 Enzyme (Homo sapiens, UniProt P28907).
T1 construct: purchased Sino Biological Inc 10818-H08H
T1 sequence (P28907 43-300 limits assumed): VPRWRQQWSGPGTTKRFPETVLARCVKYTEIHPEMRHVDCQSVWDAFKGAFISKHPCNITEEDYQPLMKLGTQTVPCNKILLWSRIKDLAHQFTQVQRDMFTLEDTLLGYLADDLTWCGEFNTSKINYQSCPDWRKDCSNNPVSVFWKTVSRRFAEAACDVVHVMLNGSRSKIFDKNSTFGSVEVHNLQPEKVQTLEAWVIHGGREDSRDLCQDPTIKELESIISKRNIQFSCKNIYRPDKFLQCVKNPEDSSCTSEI
As to the kind of experiment: CD38 hydrolase enzymatic assay. The format is biochemical. The conditions noted are these: rhCD38, ε-NAD substrate, 25° C., point reading time 20 mins; read-out: hCD38 Enzyme inhibition IC50. Here is the method: Also, a blank sample was prepared with 50 μl of sucrose buffer and no test compounds.
The dynamic reading was performed at 25° C. with excitation light of 300 nm and emission light of 410 nm on the enzyme marker by contacting the above-prepared rhCD38 enzyme working fluid and the above-prepared solutions of the test compounds disclosed herein or the solution of the control. The readings were recorded for a total of 1 hour, and the data were analyzed with the point reading time of 20 mins.
Fluorescence was recorded by a microplate reader. Individual excel files containing fluorescence data were exported and the results were plotted against various drug concentrations and analyzed in GraphPad Prism 7.0 for concentration curve generation.
Take `CO[C@H]1CC[C@H](NC(=O)c2cc(-n3ccnc3)cc(C)n2)CC1` [compound 50, 4-(1H-imidazol-1-yl)-N-((1r,4r)-4-methoxycyclohexyl)-6-methylpicolinamide]: the IC50 is over 10000 nM. As to `CO[C@H]1CC[C@H](NC(=O)c2cc(Cl)cc(-n3ccnc3)n2)CC1` [compound 51, 4-chloro-6-(1H-imidazol-1-yl)-N-((1r,4r)-4-methoxycyclohexyl) picolinamide], the IC50 was found to be 9 nM. Under `CO[C@H]1CC[C@H](NC(=O)c2cc(C)cc(-n3ccnc3)n2)CC1` [compound 52, 6-(1H-imidazol-1-yl)-N-((1r,4r)-4-methoxycyclohexyl)-4-methylpicolinamide] stands 55 nM.

As to `CO[C@H]1CC[C@H](NC(=O)c2cc(C(F)(F)F)cc(-n3ccnc3)n2)CC1` [compound 53, 6-(1H-imidazol-1-yl)-N-((1r,4r)-4-methoxycyclohexyl)-4-(trifluoromethyl) picolinamide], the concentration for half-maximal inhibition (IC50) was determined as 36 nM. Under `CO[C@H]1CC[C@H](NC(=O)c2cc(-n3ccnn3)cc3cc[nH]c23)CC1` [compound 54, N-((1r,4r)-4-methoxycyclohexyl)-5-(1H-1,2,3-triazol-1-yl)-1H-indole-7-carboxamide] stands 6850 nM; under `CO[C@H]1CC[C@H](NC(=O)c2cc(-n3nccn3)cc3cc[nH]c23)CC1` [compound 55, N-((1r,4r)-4-methoxycyclohexyl)-5-(2H-1,2,3-triazol-2-yl)-1H-indole-7-carboxamide], over 10000 nM. With `CO[C@H]1CC[C@H](NC(=O)c2cc(-n3ccnc3)cnc2N)CC1` [compound 59, 2-amino-5-(1H-imidazol-1-yl)-N-((1r,4r)-4-methoxycyclohexyl) nicotinamide], the IC50 is over 10000 nM. In the case of `CO[C@H]1CC[C@H](NC(=O)c2nc(-n3ccnc3)ccc2N)CC1` [compound 60, 3-amino-6-(1H-imidazol-1-yl)-N-((1r,4r)-4-methoxycyclohexyl) picolinamide], the IC50 is 17 nM. Then `Nc1ccc(-n2ccnc2)nc1C(=O)NC1CCCCC1` [compound 61, 3-amino-N-cyclohexyl-6-(1H-imidazol-1-yl)picolinamide], with 15 nM; and `O=C(Nc1cccnc1)c1ccnc(-n2ccnc2)n1` [compound 66, 2-(1H-imidazol-1-yl)-N-(pyridin-3-yl)pyrimidine-4-carboxamide], with 1.7 nM; and `CO[C@H]1CC[C@H](NC(=O)c2nc(-n3ccnc3)cnc2O)CC1` [compound 67, 3-hydroxy-6-(1H-imidazol-1-yl)-N-((1r,4r)-4-methoxycyclohexyl)pyrazine-2-carboxamide], with over 10000 nM. Then `CO[C@H]1CC[C@H](NC(=O)c2cc(-n3ccnc3)ncc2N)CC1` [compound 69, 5-amino-2-(1H-imidazol-1-yl)-N-((1r,4r)-4-methoxycyclohexyl) isonicotinamide], with 111 nM; and `CO[C@H]1CC[C@H](NC(=O)c2nc(-n3ccnc3)ccc2O)CC1` [compound 71, 3-hydroxy-6-(1H-imidazol-1-yl)-N-((1r,4r)-4-methoxycyclohexyl) picolinamide], with 73 nM; and `O=C(NC1CCCCC1)c1ccnc(-n2ccnc2)n1` [compound 72, N-cyclohexyl-2-(1H-imidazol-1-yl)pyrimidine-4-carboxamide], with 16 nM.

For the molecule `COc1ccc(C(=O)N[C@H]2CC[C@H](OC)CC2)nc1-n1ccnc1` [compound 74, 6-(1H-imidazol-1-yl)-5-methoxy-N-((1r,4r)-4-methoxycyclohexyl) picolinamide], the IC50 was found to be 4040 nM. Then `CO[C@H]1CC[C@H](NC(=O)c2nc(-n3ccnc3)ccc2Cl)CC1` [compound 75, 3-chloro-6-(1H-imidazol-1-yl)-N-((1r,4r)-4-methoxycyclohexyl) picolinamide], with 389 nM; and `CO[C@H]1CC[C@H](NC(=O)c2ccc(C)c(-n3ccnc3)n2)CC1` [compound 76, 6-(1H-imidazol-1-yl)-N-((1r,4r)-4-methoxycyclohexyl)-5-methylpicolinamide], with over 10000 nM; and `CO[C@H]1CC[C@H](NC(=O)c2ccc(Cl)c(-n3ccnc3)n2)CC1` [compound 77, 5-chloro-6-(1H-imidazol-1-yl)-N-((1r,4r)-4-methoxycyclohexyl) picolinamide], with 2450 nM. Then `Cc1cn(-c2cncc(C(=O)NC3CCCCC3)n2)cn1` [compound 78, N-cyclohexyl-6-(4-methyl-1H-imidazol-1-yl)pyrazine-2-carboxamide], with over 10000 nM.

Regarding `Cc1cncn1-c1cncc(C(=O)NC2CCCCC2)n1` [compound 79, N-cyclohexyl-6-(5-methyl-1H-imidazol-1-yl)pyrazine-2-carboxamide], the IC50 came out at 2190 nM. With `Cc1nccn1-c1cncc(C(=O)NC2CCCCC2)n1` [compound 80, N-cyclohexyl-6-(2-methyl-1H-imidazol-1-yl)pyrazine-2-carboxamide], the IC50 is over 10000 nM. On to `O=C(Nc1ccccc1)c1cccc(-n2ccnc2)n1` [compound 81, 6-(1H-imidazol-1-yl)-N-phenylpicolinamide], for which the IC50 was 15 nM. With `O=C(Nc1ccccc1)c1ccnc(-n2ccnc2)n1` [compound 82, 2-(1H-imidazol-1-yl)-N-phenylpyrimidine-4-carboxamide], the IC50 came out at 3 nM.

As for `Cc1ccccc1NC(=O)c1ccnc(-n2ccnc2)n1` [compound 83, 2-(1H-imidazol-1-yl)-N-(o-tolyl)pyrimidine-4-carboxamide], the IC50 was found to be 132 nM. Then `O=C(Nc1ccccc1F)c1ccnc(-n2ccnc2)n1` [compound 84, N-(2-fluorophenyl)-2-(1H-imidazol-1-yl)pyrimidine-4-carboxamide], with 13 nM; and `O=C(Nc1ccccc1Cl)c1ccnc(-n2ccnc2)n1` [compound 85, N-(2-chlorophenyl)-2-(1H-imidazol-1-yl)pyrimidine-4-carboxamide], with 29 nM; and `CO[C@H]1CC[C@H](NC(=O)c2cc(C)nc(-n3ccnc3)n2)CC1` [compound 99, 2-(1H-imidazol-1-yl)-N-((1r,4r)-4-methoxycyclohexyl)-6-methylpyrimidine-4-carboxamide], with 9 nM.

As to `CO[C@H]1CC[C@H](NC(=O)c2ccnc(-n3cccn3)n2)CC1` [compound 100, N-((1r,4r)-4-methoxycyclohexyl)-2-(1H-pyrazol-1-yl)pyrimidine-4-carboxamide], the IC50 was determined as 3430 nM. Under `O=C(Nc1cccc(F)c1)c1cc(N2CCCCC2)nc(-n2ccnc2)n1` [compound 101, N-(3-fluorophenyl)-2-(1H-imidazol-1-yl)-6-(piperidin-1-yl)pyrimidine-4-carboxamide] stands 17 nM; under `O=C(Nc1cccc(F)c1)c1ccnc(-n2cccn2)n1` [compound 102, N-(3-fluorophenyl)-2-(1H-pyrazol-1-yl)pyrimidine-4-carboxamide], over 10000 nM.

In the case of `CO[C@H]1CC[C@H](NC(=O)c2cc(C(F)(F)F)nc(-n3ccnc3)n2)CC1` [compound 103, 2-(1H-imidazol-1-yl)-N-((1r,4r)-4-methoxycyclohexyl)-6-(trifluoromethyl) pyrimidine-4-carboxamide], the IC50 came out at 28 nM. Then `CO[C@H]1CC[C@H](NC(=O)c2cc(OC3CCC3)nc(-n3ccnc3)n2)CC1` [compound 104, 6-cyclobutoxy-2-(1H-imidazol-1-yl)-N-((1r,4r)-4-methoxycyclohexyl)pyrimidine-4-carboxamide], with 26 nM; and `COc1cc(C(=O)N[C@H]2CC[C@H](OC)CC2)nc(-n2ccnc2)n1` [compound 105, 2-(1H-imidazol-1-yl)-6-methoxy-N-((1r,4r)-4-methoxycyclohexyl) pyrimidine-4-carboxamide], with 20 nM. Consider `CO[C@H]1CC[C@H](NC(=O)c2cc(C#N)nc(-n3ccnc3)n2)CC1` [compound 106, 6-cyano-2-(1H-imidazol-1-yl)-N-((1r,4r)-4-methoxycyclohexyl)pyrimidine-4-carboxamide], for which the IC50 was found to be 18 nM.

On to `O=C(Nc1ccccn1)c1ccnc(-n2ccnc2)n1` [compound 112, 2-(1H-imidazol-1-yl)-N-(pyridin-2-yl)pyrimidine-4-carboxamide], for which the IC50 is 20 nM. On to `O=C(Nc1cccc(F)c1)c1cc(N2CCOCC2)nc(-n2ccnc2)n1` [compound 114, N-(3-fluorophenyl)-2-(1H-imidazol-1-yl)-6-morpholinopyrimidine-4-carboxamide], for which the IC50 came to 5 nM. Consider `O=C(Nc1cccc(F)c1)c1nc(-n2ccnc2)ncc1N1CCCCC1` [compound 115, N-(3-fluorophenyl)-2-(1H-imidazol-1-yl)-5-(piperidin-1-yl) pyrimidine-4-carboxamide], for which the IC50 is 43 nM.

Regarding `O=C(Nc1cccc(F)c1)c1ccnc(-c2ccn[nH]2)n1` [compound 116, N-(3-fluorophenyl)-2-(1H-pyrazol-5-yl)pyrimidine-4-carboxamide], the IC50 was over 10000 nM. As to `CN(C(=O)c1cc(N2CCCCC2)nc(-n2ccnc2)n1)c1cccc(F)c1` [compound 117, N-(3-fluorophenyl)-2-(1H-imidazol-1-yl)-N-methyl-6-(piperidin-1-yl)pyrimidine-4-carboxamide], the IC50 is over 10000 nM. As for `O=C(Nc1cccc(F)c1)c1cc(OC2CCC2)nc(-n2ccnc2)n1` [compound 121, 6-cyclobutoxy-N-(3-fluorophenyl)-2-(1H-imidazol-1-yl)pyrimidine-4-carboxamide], the IC50 was 8 nM.
